Series [1] has as its target histidine-tagged recombinant human TrkA, cytoplasmic domain (Homo sapiens (Human), UniProt P04629). Description: TrkA ELISA Assay. Also: 2.5 nM TrkA. The series is classed as biochemical. The following applies: read-out: TrkA Elisa Enzyme Assay IC50. The protocol: An enzyme-linked immunosorbant assay (ELISA) was used to assess TrkA kinase activity in the presence of inhibitors. Immulon 4HBX 384-well microtiter plates (Thermo part #8755) were coated with a 0.025 mg/mL solution of poly (Glu, Ala, Tyr; 6:3:1; Sigma P3899). […] The assay buffer consisted of 25 mM MOPS pH 7.5, 0.005% (v/v) Triton X-100 and 5 mM MgCl2. The reaction mixture was removed from the plate by washing with PBS containing 0.1% (v/v) Tween 20. The phosphorylated reaction product was detected using 0.2 μg/mL of a phosphotyrosine specific monoclonal antibody (clone PY20) conjugated to horseradish peroxidase in conjunction with the TMB Peroxidase Substrate System (KPL). After the addition of 1M phosphoric acid, the chromogenic substrate color intensity was quantitated via absorbance at 450 nm. IC50 values were calculated using either a 4 or 5-parameter logistic curve fit.
Table 1 provides averaged IC50 values for compounds of the invention when tested in this assay.
Background: ELISA stands for enzyme-linked immunosorbent assay.

Series [2] concerns the target His-tagged recombinant human TrkA (cytoplasmic domain) (Homo sapiens (Human), UniProt P04629). Description: TrkA Binding Assay (LanthaScreen Eu Kinase Binding Assay). The protocol:
The ability of a compound to bind to TrkA was measured by Invitrogen's LanthaScreen™ Eu Kinase Binding Assay. […] After a 60-minute incubation at 22° C., the reaction was measured using the EnVision via TR-FRET dual wavelength detection, and the POC was calculated from the emission ratio. The compound dose response data was fit to a 4-parameter logistic model and IC50 was defined as the concentration of compound at 50 POC.
Background: TR-FRET usually uses a lanthanide donor and a delayed reading to cut background.

Test in series [3]: not given
This is another data set of the same source.

Like-named read-outs stand apart in the source and are kept apart here.

Chain of His-tagged recombinant human TrkA (cytoplasmic domain) (P04629 440-796): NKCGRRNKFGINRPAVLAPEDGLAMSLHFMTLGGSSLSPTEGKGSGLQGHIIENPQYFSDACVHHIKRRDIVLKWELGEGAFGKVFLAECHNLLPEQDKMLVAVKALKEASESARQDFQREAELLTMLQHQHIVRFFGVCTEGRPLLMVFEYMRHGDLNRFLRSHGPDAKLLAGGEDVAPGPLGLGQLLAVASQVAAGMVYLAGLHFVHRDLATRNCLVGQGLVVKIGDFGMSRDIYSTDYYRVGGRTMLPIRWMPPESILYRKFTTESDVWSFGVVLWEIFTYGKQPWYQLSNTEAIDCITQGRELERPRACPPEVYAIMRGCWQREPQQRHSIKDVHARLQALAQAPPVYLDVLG
Chain of histidine-tagged recombinant human TrkA, cytoplasmic domain (P04629 440-796): as above

On to `O=C1NC[C@H](O)Cn2cc(F)cc(c2=O)[C@H]2CCCN2c2ccn3ncc1c3n2` [Example 5, (6R,13S)-9-fluoro-13-hydroxy-2,11,15,19,20,23-hexaazapentacyclo-[15.5.2.1^7,11.0^2,6.0^20,24]pentacosa-1(23),7,9,17(24),18,21-hexaene-16,25-dione], for which the concentration for half-maximal inhibition (IC50) in series [1] and in series [2] was 1 to 100 nM throughout. For the same compound, the ring closure, isolated yield (from O=C(NC[C@H](O)CCl)c1cnn2ccc(N3CCC[C@@H]3c3cc(F)c[nH]c3=O)nc12, other bond, 14-membered ring, Cs2CO3, DMF, […], 85.0 °C, 2.0 h) turned out to be 12%. Also, in series [3] (from O=C(NC[C@H](O)CCl)c1cnn2ccc(N3CCC[C@@H]3c3cc(F)c[nH]c3=O)nc12, amine bond, Cs2CO3, DMF, […], 85.0 °C, 2.0 h), the ring closure, yield of all isomers worked out at 27%.
Where the note is “from C[C@H](CN)Cn1cc(F)cc([C@H]2CCCN2c2ccn3ncc(C(=O)O)c3n2)c1=O, amide bond, 14-membered ring, HATU/DIEA, DMF, […], 3.0 h, 2 steps”, `C[C@@H]1CNC(=O)c2cnn3ccc(nc23)N2CCC[C@@H]2c2cc(F)cn(c2=O)C1` [Example 34, (6R,13R)-9-fluoro-13-methyl-2,11,15,19,20,23-hexaazapentacyclo [15.5.2.1^7,11.0^2,6.0^20,24]pentacosa-1(23),7,9,17(24),18,21-hexaene-16,25-dione] returned a ring closure, isolated yield of 10%. Besides, the half-inhibitory concentration (IC50) (as a rule, the point on the concentration scale where inhibition reaches its midpoint) in series [2] was 1 to 100 nM. The ring closure, yield of all isomers in series [3] (from COC(=O)c1cnn2ccc(N3CCC[C@@H]3c3cc(F)cn(C[C@H](C)CN)c3=O)nc12, amide bond, HATU, DMF, […], 3.0 h, 2 steps) came to 10%.
On to `O=C1OCCn2cc(F)cc(c2=O)[C@H]2CCCN2c2ccn3ncc1c3n2` [Example 15, (6R)-9-fluoro-14-oxa-2,11,18,19,22-pentaazapentacyclo[14.5.2.1^7,11.0^2,6.0^19,23]tetracosa-1(22),7,9,16(23), 17,20-hexaene-15,24-dione], for which the 50% inhibitory concentration (IC50) in series [1] is 100 to 3000 nM. The ring closure, isolated yield (from O=C(OCCCl)c1cnn2ccc(N3CCC[C@@H]3c3cc(F)c[nH]c3=O)nc12, ether bond, 13-membered ring, Cs2CO3, DMF, 22.2 mM, 90.0 °C, 16.0 h) is 22%.
`O=C1NCCCn2cc(F)cc(c2=O)[C@H]2CCCN2c2ccn3ncc1c3n2` [Example 1, (6R)-9-fluoro-2,11,15,19,20,23-hexaazapentacyclo[15.5.2.1^7,11.0^2,6.0^20,24]pentacosa-1(23),7,9,17(24),18,21-hexaene-16,25-dione]: the IC50 in series [1] and in series [2] was 1 to 100 nM in each case. This compound also came in with a ring closure, isolated yield (from NCCCn1cc(F)cc([C@H]2CCCN2c2ccn3ncc(C(=O)O)c3n2)c1=O, amide bond, 14-membered ring, EDCI/HOBt/TEA, DMF/DCM 1:2, 26.7 mM, 6.0 h) of 39%. In series [3] (from NCCCn1cc(F)cc([C@H]2CCCN2c2ccn3ncc(C(=O)O)c3n2)c1=O, amide bond, EDCI/HOBt, DCM, 26.7 mM, 25.0 °C, 6.0 h), this compound had a ring closure, yield of all isomers of 39%.
For the setting “from O=C(Nc1ccnn1CCO)c1cnn2ccc(N3CCC[C@@H]3c3cc(F)cnc3O)nc12, ether bond, 15-membered ring, DEAD/PPh3, THF, 14.3 mM, 2 steps”, `O=C1Nc2ccnn2CCOc2ncc(F)cc2[C@H]2CCCN2c2ccn3ncc1c3n2` [Example 38, (6R)-9-fluoro-13-oxa-2,11,16,17,21,25,26,29-octaazahexacyclo [21.5.2.0^2,6.0^7,12.0^16,20.0^26,30]triaconta-1(29),7,9,11,17,19,23(30),24,27-nonaen-22-one] yielded a ring closure, isolated yield of 1.5%. Moreover, the IC50 in series [2] lay in the range of 1 to 100 nM. Further, the ring closure, yield of all isomers in series [3] (from COc1ncc(F)cc1[C@H]1CCCN1c1ccn2ncc(C(=O)Nc3ccnn3CCO[Si](c3ccccc3)(c3ccccc3)C(C)(C)C)c2n1, ether bond, DEAD/PPh3, THF, 14.25 mM, 25.0 °C, 18.0 h, 2 steps) came out at 1.5%.

(Values after patent US9718822B2, “Macrocyclic compounds as Trk kinase inhibitors” (Array BioPharma, Inc., priority 2010, dated 2017).)
